Where no end group is shown, it is not given here. The star is where a group is joined. Palmitoyl = CCCCCCCCCCCCCCCC(=O)*
Legend:
[1] = tested on: IL6 inflammatory gene; assay: LPS-induced IL-6 expression in RAW264.7 cells by quantitative real-time RT-PCR; assay type: cell-based; conditions: RAW264.7 mouse macrophages, pre-treatment, then LPS
Procedure: FIG. 4A is a graph showing IL-6 levels in RAW264.7 cells as measured by quantitative real-time RT-PCR after treatment with scrambled peptides (Pal-Scram; 100 nM) or Smaducin-6 and then with LPS,

[2] = tested on: IRAK1-, RIP1- or IKKε-mediated signaling complexes; assay: Co-immunoprecipitation of LPS-induced TLR4 downstream signaling complexes in primary peritoneal macrophages; assay type: cell-based, mice
Procedure: A co-immunoprecipitation assay was carried out as follows. For use as antibodies in co-immunoprecipitation, mouse anti-HA (F-7), mouse anti-c-Myc (9E10), rabbit anti-IκBα (C-21), mouse anti-IRAK1 (F-4), and mouse anti-TRAF6 (D-10) were purchased from Santa Cruz Biotechnology (USA), the antibodies rabbit anti-Pellino-1 and rabbit anti-IRAK4 from Imgenex, the antibodies rabbit anti-Smad6, rabbit anti-MyD88 (D80F5), rabbit anti-IKKα, rabbit anti-phospho-IKKα/β, rabbit anti-RIP1 (D94C12), rabbit anti-IKKi (anti-IKKE; D61F9), rabbit anti-TBK1 (D1B4), rabbit anti-GRK2 from Cell Signaling, and the antibody anti-β-actin from Sigma. Cells were lysed in a lysis buffer (PBS containing 0.5% Triton X-100, 20 mM HEPES (pH 7.4), 150 mM NaCl, 12.5 mM β-glycerol phosphate, 1.5 mM MgCl2, 10 mM NaF, 2 mM DTT, 1 mM Na3O4V, 2 mM EGTA, 1 mM PMSF and protease inhibitor mixture), and harvested by centrifuging 13,000 rpm for 10 min. For immunoprecipitation, the cell lysate were incubated at 4° C. for 12 hrs with protein-A agarose beads and the above-mentioned antibodies. Afterwards, the beads were washed three times with a lysis buffer, and treated with a 2× sample buffer to separate the co-immunoprecipitates therefrom. The co-immunoprecipitates were boiled, followed by SDS-PAGE.
To examine whether Smaducin-6 interrupts the formation of the downstream signaling complex of TLR4, the cells were pre-treated with Smaducin-6 in the same manner as in Example 1, and analyzed for the LPS-induced formation of the signaling complex using a co-immunoprecipitation method. For control, the same experiment was conducted with scrambled peptides.

[3] = tested on: BALB/c mice with CLP-induced sepsis; assay: Survival of mice with CLP-induced sepsis; assay type: in vivo
Procedure: For use in assay for therapeutic effects of Smaducin-6 on sepsis, BALB/c mice were subjected to CLP (cecal ligation puncture) to prepare suitable animal models of clinical sepsis. Two hours after CLP operation on the mice, Smaducin-6 was subcutaneously injected at a dose of 8 mg/kg, 12 mg/kg, or 16 mg/kg to the mice, and then three more times at regular intervals of 12 hrs. […] In this context, Smaducin-6 was initially injected at a dose of 16 mg/kg 2, 4, or 10 hrs after CLP operation, and then three more times at regular intervals of 12 hrs. Further, cells from various tissues of CLP mice were stained with hematoxylin-eosin to observe nucleus and cell morphology.

[4] = tested on: inflammatory cytokines; assay: Blood cytokine levels by ELISA in mice with CLP-induced sepsis; assay type: in vivo; conditions: blood 24 hrs after CLP
Source text: FIG. 6A to 6I show levels of cytokines in blood samples from mice subcutaneously injected twice with Smaducin-6 or scrambled peptides at 2 and 14 hrs after CLP induction, as analyzed by ELISA, the blood samples being taken 24 hrs after CLP induction, and
In animal models of CLP-induced sepsis, Smaducin-6 was examined for ability to downregulate inflammatory cytokines. Blood samples were taken from each experimental group, and various cytokines and chemokines related with inflammatory responses were quantitatively measured. To the mice with CLP-induced sepsis, the peptide of the present invention was injected 2 and 14 hrs after CLP, and blood samples were collected 24 hrs after CLP. Levels of cytokines and chemokines in the blood samples were determined by ELISA using various antibodies according to the manufacturer's protocol. The antibodies used in this ELISA included mouse IL-6 (88-7064), IFN-γ (88-7314), TNF-α (88-7346), IL-4 (88-7044), IL-10 (88-7104), TGF-β1 (88-7344), IL-12 p70 (88-7121) and IL-17A (88-7371) ELISA Ready-SET-GO from eBioscience, Mouse IL-1β ELISA Set (559603) from BD Sciences, Mouse CXCL2/MIP-2 Immunoassay (MM200) from R&D Systems, and Mouse IFN-β ELISA Kit from PBL Biomedical Laboratories.

[5] = tested on: IL-6; assay: IL-6 immunoblot in spleen and liver of CLP mice; assay type: in vivo; conditions: immunoblotting
[6] = tested on: bacteria in peritoneal fluid; assay: Bacterial count in peritoneal fluid of CLP mice; assay type: in vivo; conditions: subcutaneous injection, versus scrambled peptides
Source text: FIG. 7A is a graph showing cell counts in the peritoneal fluid taken from sepsis mice treated with scrambled peptides or Smaducin-6,
In mice with CLP-induced sepsis, the bacterial clearance of Smaducin-6 was examined. Smaducin-6 or the scrambled peptides were subcutaneously injected into CLP mice from which peritoneal fluid was then extracted from the mice, and bacteria in the fluid was counted. […] An examination was made to see whether this bacterial clearance of Smaducin-6 was attributed to the intraperitoneal migration of neutrophils. To this end, 2 and 14 hrs after induction of septic shock by injecting 60 mg/kg of LPS, Smaducin-6 or the scrambled peptides were injected into septic shock mice, and 24 hrs after the induction of septic shock, neutrophils were isolated from the peritoneal cavity using Histopaque-1077 (Sigma). Mouse neutrophils were counted using Trypan Blue (Sigma).

[7] = injected 2 and 14 hrs after CLP

## Smaducin-6: palmitic acid conjugated to N-terminus of the 20-amino-acid peptide of Smad6 position 422 to 441, GGRALVVRKVPPGYSIKVFD (SEQ ID NO: 1) (Palmitoyl-GGRALVVRKVPPGYSIKVFD)
[1]
  expression of LPS-induced IL6 inflammatory gene: reduced the expression of LPS-induced IL6 inflammatory gene in a dose-dependent manner
[2]
  LPS-induced formation of the IKKε-mediated signaling complex: suppressed
  LPS-induced formation of the IRAK1-mediated signaling complex: suppressed
  LPS-induced formation of the RIP1-mediated signaling complex: suppressed
[3]; 12 mg/kg subcutaneous, first injection 2 hrs after CLP, three more times every 12 hrs (FIG. 5A)
  survival rate of CLP mice: 70%
[3]; 16 mg/kg subcutaneous, first injection 2 hrs after CLP, three more times every 12 hrs (FIG. 5A)
  survival rate of CLP mice: 90%
[3]; 16 mg/kg, initial injection 2 hrs after CLP (FIG. 5B)
  survival rate of CLP mice: 90%
[3]; 16 mg/kg, initial injection 4 hrs after CLP (FIG. 5B)
  survival rate of CLP mice: 60%
[4]; [7]
  level of IFN-γ in the blood: significantly reduced
  level of IL-1β in the blood: significantly reduced
  level of IL-6 in the blood: significantly reduced
  level of TNF-α in the blood: significantly reduced
[4]; versus scrambled peptide
  level of IL-4 in the blood: no statistically significant changes
  level of IL-10 in the blood: no statistically significant changes
  level of IL-12 in the blood: no statistically significant changes
  level of IL-17A in the blood: no statistically significant changes
  level of TGF-β1 in the blood: no statistically significant changes
[5]
  IL-6 expression in the spleen and the liver: reduce
[6]
  number of bacteria in the peritoneal fluid: significantly lower

Reference: patent US20170198011A1, “COMPOSITION FOR TREATING SEPSIS OR SEPTIC SHOCK COMPRISING THE PEPTIDE ORIGINATED FROM THE SMAD6” (Medpacto, Inc., priority 2011, published 2017)
